Experiments:
Format in all cases: in vivo
[1] = system: johnsongrass (Sorghum halepense); experiment: Test C preemergence; conditions: for Plant response rating (scale of 0 to 100), Johnsongrass: 31 g ai/ha, 0 is no effect, 100 is complete control; for Plant response rating, Johnsongrass: scale 0 to 100, 0 no effect, 100 complete control
Source text: Seeds of plant species selected from blackgrass (Alopecurus myosuroides), ryegrass, Italian (Italian ryegrass, Lolium multiflorum), wheat (winter wheat, Triticum aestivum), Galium (catchweed bedstraw, Galium aparine), corn (Zea mays), crabgrass, large (large crabgrass, Digitaria sanguinalis), foxtail, giant (giant foxtail, Setaria faberii), johnsongrass (Sorghum halepense), lambsquarters (Chenopodium album), morningglory (Ipomoea coccinea), nutsedge, yellow (yellow nutsedge, Cyperus esculentus), pigweed (Amaranthus retroflexus), ragweed (common ragweed, Ambrosia elatior), soybean (Glycine max), barnyardgrass (Echinochloa crus-galli), oilseed rape (Brassica napus), waterhemp (common waterhemp, Amaranthus rudis) and velvetleaf (Abutilon theophrasti) were planted into a blend of loam soil and sand and treated preemergence with test chemicals formulated in a non-phytotoxic solvent mixture which included a surfactant.
At the same time, plants selected from these crop and weed species and also Kochia (Kochia scoparia), oat, wild (wild oat, Avena fatua), and chickweed (common chickweed, Stellaria media) were planted in pots containing Sunshine Redi-Earth® planting medium comprising spaghnum peat moss, vermiculite, starter nutrients and dolomitic limestone and treated with postemergence applications of test chemicals formulated in the same manner. Plants ranged in height from 2 to 18 cm (1- to 4-leaf stage) for postemergence treatments. Treated plants and controls were maintained in a greenhouse for 13 to 15 d, after which time all species were compared to controls and visually evaluated. Plant response ratings, summarized in Table C, are based on a scale of 0 to 100 where 0 is no effect and 100 is complete control. A dash (-) response means no test result.

rice (Oryra sativa) = experiment: Test B flooded paddy test; conditions: Flood, 250 g ai/ha; 0 to 100 scale where 0 is no effect and 100 is complete control; 13 to 15 d
Method in brief: (§1)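 Percent control, visually estimated after 13–15 d in the greenhouse on a 0–100 basis, compares treated pots with untreated ones; compound was put into paddy water 3 cm above the soil when plants had two leaves.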

[2] = system: barnyardgrass (Echinochloa crus-galli); experiment: Test B flooded paddy test; conditions: Flood, 250 g ai/ha; 0 to 100 scale where 0 is no effect and 100 is complete control; 13 to 15 d
Method in brief: as §1

[3] = system: ducksalad (Heteranthera limosa); experiment: Test B flooded paddy test; conditions: Flood, 250 g ai/ha; 0 to 100 scale where 0 is no effect and 100 is complete control; 13 to 15 d
Method in brief: as §1

[4] = system: sedge, umbrella (small-flower umbrella sedge, Cyperus difformis); experiment: Test B flooded paddy test; conditions: Flood, 250 g ai/ha; 0 to 100 scale where 0 is no effect and 100 is complete control; 13 to 15 d
Method in brief: as §1

[5] = system: ragweed (common ragweed, Ambrosia elatior); experiment: Test A postemergence
Method in brief: (§2)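 Visual injury scores from 0, no effect, to 100, complete control, were assigned versus untreated controls roughly 10 d after treatment in the greenhouse. Test chemicals, formulated with surfactant in a non-phytotoxic solvent, were applied to planted seeds as a preemergence soil spray or postemergence to one- to two-leaf plants 2 to 10 cm tall, in loam–sand soil.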

[6] = system: barnyardgrass (Echinochloa crus-galli); experiment: Test A postemergence
Method in brief: as §2

[7] = system: giant foxtail (Setaria faberii); experiment: Test A postemergence
Method in brief: as §2

[8] = system: pigweed (Amaranthus retroflexus); experiment: Test A postemergence
Method in brief: as §2

corn (Zea mays) = experiment: Test A postemergence
Method in brief: as §2

[9] = system: Galium (catchweed bedstraw, Galium aparine); experiment: Test A postemergence
Method in brief: as §2

[10] = system: blackgrass (Alopecurus myosuroides); experiment: Test A postemergence
Method in brief: as §2

Kochia (Kochia scoparia) [11] = experiment: Test A postemergence
Method in brief: as §2

[12] = system: ryegrass, Italian (Italian ryegrass, Lolium multiflorum); experiment: Test A postemergence
Method in brief: as §2

[13] = system: wheat (Triticum aestivum); experiment: Test A postemergence
Method in brief: as §2

[14] = system: ragweed (common ragweed, Ambrosia elatior); experiment: Test A preemergence
Method in brief: as §2

[15] = system: barnyardgrass (Echinochloa crus-galli); experiment: Test A preemergence
Method in brief: as §2

[16] = system: giant foxtail (Setaria faberii); experiment: Test A preemergence
Method in brief: as §2

[17] = system: pigweed (Amaranthus retroflexus); experiment: Test A preemergence
Kochia (Kochia scoparia) [18] = experiment: Test A preemergence
Method in brief: as §2

[19] = system: ryegrass, Italian (Italian ryegrass, Lolium multiflorum); experiment: Test A preemergence
Method in brief: as §2

[20] = 125 g ai/ha, postemergence, visual injury rating on 0 to 100 scale (0 no effect, 100 complete control), approx. 10 d
[21] = Postemergence, 500 g ai/ha, 0 to 100 scale where 0 is no effect and 100 is complete control
[22] = 125 g ai/ha, Preemergence, visual injury after approximately 10 d, 0 to 100 scale where 0 is no effect and 100 is complete control
[23] = Preemergence, 500 g ai/ha, visual injury approx. 10 d
[24] = 125 g ai/ha, postemergence, visual rating after approx. 10 d, 0 to 100 scale (0 no effect, 100 complete control)
[25] = 500 g ai/ha, preemergence, 0 to 100 scale, 0 = no effect, 100 = complete control

SMILES	Plant response rating (scale of 0 to 100), Johnsongrass [1]	Plant response rating, Johnsongrass ([1]; 62 g ai/ha)	Plant response rating, Johnsongrass ([1]; 125 g ai/ha)	Plant response rating, Johnsongrass ([1]; 250 g ai/ha)	Plant response rating, Rice (rice (Oryra sativa))	Plant response rating, Barnyardgrass [2]	Plant response rating, Ducksalad [3]	Plant response rating, Sedge, Umbrella [4]	Plant response rating, Ragweed [5, 21]	Plant response rating, Barnyardgrass [6, 21]	Plant response rating, Foxtail, Giant [7, 21]	Plant response rating, Pigweed [8, 21]	Plant response rating, Corn (corn (Zea mays); [21])	Plant response rating, Galium [9, 21]	Plant response rating, Blackgrass [10, 21]	Plant response rating, Kochia (Kochia (Kochia scoparia) [11]; [21])	Plant response rating, Ryegrass, Italian [12, 21]	Plant response rating, Wheat [13, 21]	Plant response rating, Ragweed [14, 22]	Plant response rating, Barnyardgrass [15, 22]	other results
O=C1NCC(c2cc(F)cc(Cl)c2)C1C(=O)Nc1cccc(F)c1F (centres unmarked) [Compound 492]	20	55	80	90	25	65	100	0	70	90	90	60	80	60	70	60	50	60	30	90	Ragweed plant response rating [5, 20]: 30; Barnyardgrass plant response rating [6, 20]: 90; Foxtail, Giant plant response rating [7, 20]: 90; Pigweed plant response rating [8, 20]: 40; Corn plant response rating (corn (Zea mays); [20]): 70; Galium plant response rating [9, 20]: 50; Blackgrass plant response rating [10, 20]: 50; Kochia plant response rating (Kochia (Kochia scoparia) [11]; [20]): 40; Ryegrass, Italian plant response rating [12, 20]: 20; Wheat plant response rating [13, 20]: 20; Ragweed plant response rating (0 to 100 scale, 0 is no effect, 100 is complete control) [14, 23]: 80; Barnyardgrass plant response rating (0 to 100 scale, 0 is no effect, 100 is complete control) [15, 23]: 90; Plant response rating, Foxtail, Giant [16, 22]: 90; Foxtail, Giant plant response rating (0 to 100 scale, 0 is no effect, 100 is complete control) [16, 23]: 90; Plant response rating, Pigweed [17, 22]: 0; Pigweed plant response rating (0 to 100 scale, 0 is no effect, 100 is complete control) [17, 23]: 70; Plant response rating, Kochia (Kochia (Kochia scoparia) [18]; [22]): 60; Kochia plant response rating (0 to 100 scale, 0 is no effect, 100 is complete control) (Kochia (Kochia scoparia) [18]; [23]): 70; Plant response rating, Ryegrass, Italian [19, 22]: 50; Ryegrass, Italian plant response rating (0 to 100 scale, 0 is no effect, 100 is complete control) [19, 23]: 50
CN1CC(c2ccc(F)c(C(F)(F)F)c2)C(C(=O)Nc2cccc(F)c2F)C1=O (centres unmarked) [Compound 613]	75	85	90	90	10	80	98	75	30	90	90	70	80	60	60	70	60	50	60	90	Plant response rating, Ragweed [5, 24]: 20; Plant response rating, Barnyardgrass [6, 24]: 70; Plant response rating, Foxtail, Giant [7, 24]: 90; Plant response rating, Pigweed [8, 24]: 50; Plant response rating, Corn (corn (Zea mays); [24]): 50; Plant response rating, Galium [9, 24]: 60; Plant response rating, Blackgrass [10, 24]: 40; Plant response rating, Kochia (Kochia (Kochia scoparia) [11]; [24]): 60; Plant response rating, Ryegrass, Italian [12, 24]: 60; Plant response rating, Wheat [13, 24]: 40; Plant response rating, Ragweed [14, 25]: 60; Plant response rating, Barnyardgrass [15, 25]: 90; Plant response rating, Foxtail, Giant [16, 22]: 90; Plant response rating, Foxtail, Giant [16, 25]: 90; Plant response rating, Pigweed [17, 22]: 70; Plant response rating, Pigweed [17, 25]: 70; Plant response rating, Kochia (Kochia (Kochia scoparia) [18]; [22]): 60; Plant response rating, Kochia (Kochia (Kochia scoparia) [18]; [25]): 70; Plant response rating, Ryegrass, Italian [19, 22]: 70; Plant response rating, Ryegrass, Italian [19, 25]: 80

Reference: patent publication US12077503B2, “Substituted cyclic amides and their use as herbicides” (FMC CORPORATION, priority 2015, dated 2024)
